From PMC4138103 (PLoS ONE, 2014)
Read-outs that look alike come from different tables or passages of the source.

System: Sprague-Dawley rats
Assay: Open field test for locomotor activity
Assay type: in vivo, Rattus norvegicus
Settings: for Emax: Rattus norvegicus; for Habituation, distance, CED / Habituation, distance, CED-L / Habituation, time, CED / Habituation, time, CED-L / Percent distance in inner zone, day 24, CED / Percent distance in inner zone, day 24, CED-L / Percent time in inner zone, day 24, CED / Percent time in inner zone, day 24, CED-L: total dose based
Protocol: During the last 5 days of the study (days 24–28), rats were tested for locomotor activity in an octagonal open field (diameter 75 cm). The behavior was recorded on videotapes and automatically evaluated with a program for behavioral analyses (Ethovision, Noldus, NL). Each rat was tested for 5 min on each of the 5 days to allow the examination of habituation. Sequence of the rats to be tested was varied according to a permutation scheme to exclude a systematic influence of daytime on the outcome. For analyses, the area of the open field was divided in an inner zone (diameter 50 cm) and an outer ring (width 12.5 cm). Total distance moved during the recording period, distance moved in the inner zone of the open field, distance moved in outer zone, time in inner zone, and time in outer zone were extracted as parameters from the recordings.
Data were also analyzed using the BMD method, which is based on dose-response modeling of the full data set using a nested family of exponential and Hill models. The analyses were done on data of males and females combined, using sex as a covariate. […] In that case, different Critical Effect Doses (CEDs) and CEDs at the lowest bound of the confidence interval (CED-L) were generated for each sex. If no difference between sexes is detected, a CED and CED-Ls for the combined data is generated. However, this was also done if the curve fits are close, and separate analyses for males and females were then performed manually. CEDs and CED-Ls were calculated at the predefined Critical Effect Size (CES) of 5% (EFSA standard) or 10%.

[1] = F, CES 5%, model E2, adipose tissue concentration based
[2] = F, CES 5%, model E4, adipose tissue concentration based
[3] = F, CES 10%, model E2, adipose tissue concentration based
[4] = F, CES 10%, model E4, adipose tissue concentration based
[5] = females, CES 5%, adipose tissue concentration based
[6] = females, adipose tissue concentration based

Clc1cc(Cl)c(-c2cc(Cl)c(Cl)c(Cl)c2Cl)cc1Cl [PCB 180, 2,2′,3′,4,4′,5,5′-heptachlorobiphenyl]
CED, Habituation, distance [1]: 1340 µg/g lipid | CED, Habituation, time [1]: 1130 µg/g lipid | CED-L, Habituation, distance [1]: 865 µg/g lipid | CED-L, Habituation, time [1]: 739 µg/g lipid | CED, Percent distance in inner zone, day 24 [2]: 4.12 µg/g lipid | CED, Percent time in inner zone, day 24 [2]: 1.55 µg/g lipid | CED-L, Percent distance in inner zone, day 24 [2]: 1.16 µg/g lipid | CED-L, Percent time in inner zone, day 24 [2]: 0.525 µg/g lipid | CED, Habituation, distance [3]: 2740 µg/g lipid | CED, Habituation, time [3]: 2320 µg/g lipid | CED-L, Habituation, distance [3]: 1777 µg/g lipid | CED-L, Habituation, time [3]: 1518 µg/g lipid | CED, Percent distance in inner zone, day 24 [4]: 8.69 µg/g lipid | CED, Percent time in inner zone, day 24 [4]: 3.17 µg/g lipid | CED-L, Percent distance in inner zone, day 24 [4]: 2.423 µg/g lipid | CED-L, Percent time in inner zone, day 24 [4]: 1.07 µg/g lipid | Emax (576 h, F, model E4, controls vs high dose according to the fitted model, read-out: Maximum response, Percent distance in inner zone, day 24): 53% | Emax (576 h, F, model E4, controls vs high dose according to the fitted model, read-out: Maximum response, Percent time in inner zone, day 24): 111% | Emax (576 h, females, controls vs high dose, fitted model, read-out: Percent distance in inner zone, day 24, Maximum response): 53% | Emax (576 h, females, controls vs high dose, fitted model, read-out: Percent time in inner zone, day 24, Maximum response): 107% | Emax (F, model E2, controls vs high dose according to the fitted model, read-out: Maximum response, Habituation, distance): -35.2% | Emax (F, model E2, controls vs high dose according to the fitted model, read-out: Maximum response, Habituation, time): -40.1% | Emax (females, controls vs high dose, fitted model, read-out: Habituation, distance, Maximum response): -33.2% | Emax (females, controls vs high dose, fitted model, read-out: Habituation, time, Maximum response): -37.7% | Percentage of distance moved in inner zone, day 24, CED [5]: 4.12 µg/g lipid | Percentage of time in inner zone, day 24, CED [5]: 1.55 µg/g lipid | Habituation, distance, CED (females, CES 5%): 216 mg/kg bw | Habituation, distance, CED-L (females, CES 5%): 138 mg/kg bw | Habituation, time, CED (females, CES 5%): 184 mg/kg bw | Habituation, time, CED-L (females, CES 5%): 118 mg/kg bw | Percent distance in inner zone, day 24, CED (females, CES 5%): 0.87 mg/kg bw | Percent distance in inner zone, day 24, CED-L (females, CES 5%): 0.25 mg/kg bw | Percent time in inner zone, day 24, CED (females, CES 5%): 0.35 mg/kg bw | Percent time in inner zone, day 24, CED-L (females, CES 5%): 0.11 mg/kg bw | Habituation, distance, CED (females, CES 10%): 444 mg/kg bw | Habituation, distance, CED-L (females, CES 10%): 283 mg/kg bw | Habituation, time, CED (females, CES 10%): 378 mg/kg bw | Habituation, time, CED-L (females, CES 10%): 243 mg/kg bw | Percent distance in inner zone, day 24, CED (females, CES 10%): 1.84 mg/kg bw | Percent distance in inner zone, day 24, CED-L (females, CES 10%): 0.53 mg/kg bw | Percent time in inner zone, day 24, CED (females, CES 10%): 0.71 mg/kg bw | Percent time in inner zone, day 24, CED-L (females, CES 10%): 0.23 mg/kg bw | Habituation, percentage of distance moved, CED [6]: 1340 µg/g lipid | Habituation, time in inner zone, CED [6]: 1130 µg/g lipid | Spontanous locomotor activity, CED-L [6]: 525 ng/g lipid | Altered open field behavior, CED-L (females, critical effect for risk characterization): 0.525 µg/g lipid | Open field behavior, dose-response relations (males): No significant dose-response relations
